The results in this text go back to US11472846B2, “Compositions and methods for treating diseases by inhibiting exosome release” (priority 2016, dated 2022).

Holding throughout (assay type): cell-based, human
The test system of test [1] is MCF-7 breast cancer cells. Description: InnoCyte cell migration assay, MCF-7. The note with it: MCF-7 cells, 1120 nM SMR peptide or 3 μM Latrunculin A, 24 hours. The procedure: 7-12. Cell migration assay. Cell migration assays were performed using the InnoCyte Cell Migration Assay (EMD Millipore Corporation, Temecula, Calif.) according to the manufacturer's instructions. Briefly, cell migration was monitored in the presence and absence of SMRwt peptides or latrunculin A (positive control inhibitor), which were added to the lower chamber of a 96-well plate. MCF-7 and MDA-MB-231 breast cancer cells and non-tumorigenic MCF-10A breast cells were harvested by 0.25% Trypsin-EDTA (Life Technologies) release and resuspended at 250,000500,000 cells/ml in serum-free RPMI 1640 media. A total of 25,000-50,000 cells was added to the upper chamber and allowed to migrate through an 8-μm pore-size membrane for 24 hours at 37° C. in a 5% CO2 atmosphere. Cells that migrated through the membrane were detached and labeled with Calcein-AM fluorescent dye. Fluorescence was measured using a Fluorescence Plate Reader (Molecular Devices, Sunnyvale, Calif.) with an excitation wavelength of 485 nm and an emission wavelength of 515 nm. The experiment was repeated in triplicate, and each conditioned experiment was performed in quadruplicate.

In test [2] the test system is MCF-7 cells. Kind of test: Complement-mediated cell cytotoxicity assay (trypan blue), MCF-7. The note with it: for cell death under complement-positive conditions: 280 nM PEG-SMRwt-Clu or 560 nM SMRwt-CPP 60 min, then anti-CXCR4 antibody and NHS 60 min; for cell death under complement-negative conditions: 280 nM PEG-SMRwt-Clu or 560 nM SMRwt-CPP, 60 min. The procedure: 7-9. Complement-mediated cell cytotoxicity assay. Complement-mediated cell cytotoxicity assays were performed as previously described (Reiter et al., Mol Immunol. (1992) 29(6): p. 771-81). Briefly, MCF-7, MDA-MB-231 and K562 cells were either mock-transfected or transfected with mortalin siRNA. Cells were incubated with 1 μg/ml of anti-CXCR4 antibody for 30 min at 4° C., followed by treatment with PEG-SMRwt-Clu peptide or PEG-SMRmut-Clu peptide or SMRwt-CPP peptide or SMRmut-CPP peptide alone, or treated with SMR peptide combined with complement from normal human serum (NHS) or heat-inactivated normal human serum (NIS) for 60 min at 37° C. Percentage of cells lysed were determined by a trypan blue exclusion assay using the TC10™ Automated Cell Counter (Bio-Rad, Richmond Calif.). (FIG. 14, FIG. 15, Panel D).

The test system of test [3] is MCF-7 breast cancer cells. Kind of test: Propidium iodide cell cycle analysis (Cellometer), MCF-7. The note with it: MCF-7 cells, 48 hours, 1.12 μM/mL peptide. The method, then:
1-4. Cell cycle analysis. MCF-7 and MDA-MB-231 breast cancer cells were cultured into 6-well plates at 4×10^5 cells per well and treated with either paclitaxel and cisplatin or combined with PEG-SMRwt-CLU peptide for 24 and 48 hours. Cell cycle analysis was performed using a propidium iodide cell cycle assay and measured using a Cellometer (Nexcelom, MA). […] Breast cancer cells were seeded into 96-well plates at 5×10^3 cells/ml, and treated with either 1.6 μM//mL of paclitaxel, or 3 mg/mL cisplatin, 1.12 μM/mL PEG-SMRwt-CLU peptide, SMR peptide combined with paclitaxel or with cisplatin (MCF-7 cells). Alternatively 1.6 μM/mL paclitaxel or 2 mg/mL cisplatin or 0.28 μM/mL of PEG-SMR-CLU peptide, or the peptide combined with each of these drugs was used for MDA-MB-231 cells. The concentrations for cisplatin and paclitaxel were experimentally determined IC50 dosages for the different cell types (data not shown). At the end of the 24 hr or 48 hr incubations, the cells were assessed by the Cellometry imaging cytometry assay.
All above steps were done on MCF-7 and MDA-MB-231 cells separately. […]

In test [4] the test system is MDA-MB-231 breast cancer cells. Description: Exosome nanoparticle tracking analysis (NanoSight NTA), MDA-MB-231. The settings on record: MDA-MB-231 cells treated 48 hr; control 4.7×10^9 particles/ml. The procedure:
1-6. Exosome isolation and purification. Exosomes were isolated from breast cancer cells by differential centrifugation as previously described (Ali SA. et al., 2010). Untreated tumor cells were used as a control. Briefly, the above treated and untreated cell culture supernatants were centrifuged at 400×g for 10 minutes. The supernatants were transferred to a clear tube and centrifuged at 10,000×g for 30 minutes. The supernatants from the second spin were ultracentrifuged at 200,000×g for 2 hours to pellet exosomes. Finally, the exosome pellets were re-suspended with PBS and stored at 4° C. until used for analysis.
1-8. Exosome nanoparticle tracking analysis (NTA). Analysis of absolute size distribution of exosomes was performed using NanoSight LM10 with NTA2.3 (NanoSight Ltd., Minton Park, UK). Particles were automatically tracked and sized based on Brownian motion and the diffusion coefficient. After isolation, the untreated and treated breast cancer exosomes were re-suspended in 0.5 mL of PBS. Control medium and filtered PBS were used as controls in this technique. The NTA measurement conditions were: temperature=21.0+/−0.5° C.; viscosity=0.99+/−0.01 cP; frames per second=25; measurement time=30 s. The detection threshold was similar in all samples. Two recordings were performed for each sample.
7-11. Exosome nanoparticle tracking analysis (NTA). […]

Turning to VGFPVAAVGFPVGRKKRRQRRRPPQ [SMRwt-CPP], in test [1], the “reduced migration by” value is on record as 71.87%. In test [2], the “cell death under complement-positive conditions” value is listed as 29% and the “cell death under complement-negative conditions” value is 2.1%.
Take “NXNVGFPVAAVGFPVHPLSKHPYWSQP (SEQ ID NO: 37) [PEG-SMRwt-Clu]”: in test [1], the “reduced migration by” value worked out at 75.74%. Moreover, in test [2], the “cell death under complement-positive conditions” value is recorded as 26% and the “cell death under complement-negative conditions” value was 2.1%. The cell cycle effect result in test [3] is “induced cell cycle arrest”. Moreover, the “number of exosome particles (NTA)” value in test [4] is listed as 6.8×10^8 particles/ml.
